{
  "source": "paper PMC9530963",
  "about": "“A cathelicidin antimicrobial peptide from Hydrophis cyanocinctus inhibits Zika virus infection by downregulating expression of a viral entry factor” (The Journal of Biological Chemistry, 2022)",
  "key": {"COX-2": {"tested_on": "COX-2", "assay": "COX-2 protein level in A549 cells (Western blot)", "format": "cell-based, Homo sapiens", "details": "A549 cells, 1.25, 2.5, or 5 μM, 24 h", "procedure": "Figure 6 Hc-CATH downregulates AXL via inhibiting COX-2/PGE2/AC/PKA pathway.A, effect of Hc-CATH on COX-2 protein level. A549 cells were incubated with Hc-CATH (1.25, 2.5, or 5 μM) or PBS (solvent of Hc-CATH) at 37 °C for 24 h, COX-2 protein level was examined by Western blot (upper panel) and analyzed by ImageJ (lower panel). B, effect of Hc-CATH on the enzymatic activity of COX-2. Hc-CATH (1.25, 2.5, 5, and 10 μM) or PBS was incubated with COX-2. After incubation at 37 °C for 10 min, the enzymatic activity of COX-2 was detected by enzyme activity inhibitor screening kit. Celecoxib (COX-2 inhibitor, 100 nM) was used as positive control. C, effect of Hc-CATH on PGE2 production. A549 cells were incubated with Hc-CATH (5 μM) at 37 °C. After incubation for 24 h, the level of PGE2 in the cell supernatant was detected by ELISA. D and E, effect of AC (D) and PKA (E) on Hc-CATH-induced AXL downregulation. A549 cells were incubated with forskolin (FSK, agonist of AC, 10 μM) or H89 (inhibitor of PKA, 5 μM) at 37 °C. After incubation for 1 h, the culture media were removed, cells were washed three times with PBS, and fresh culture media were added to cells in the presence of Hc-CATH (5 μM). After incubation for 24 h, AXL protein level was examined by Western blot (upper panel of D and E) and analyzed by ImageJ (lower panel of D and E). ns, not significant, ∗∗p < 0.01, and ∗∗∗p < 0.001. […]"}, "TYRO3": {"tested_on": "TYRO3", "assay": "TYRO3 level in Vero cells (Western blot)", "format": "cell-based, Chlorocebus aethiops", "details": "6, 12, and 24 h post Hc-CATH addition", "procedure": "Figure 3 Hc-CATH downregulates AXL in Vero cell.A, schematic diagram of B and C. B, Vero cells were seeded in 24-well plates (5 × 10^4 cells/well) and cultured in DMEM containing 2% FBS. Hc-CATH (1.25, 2.5, and 5 μM), AC5 (2.5 μM), LL-37 (2.5 μM), or same volume of PBS (peptide solvent) was added to cells. After culture at 37 °C for 6, 12, and 24 h, the levels of ZIKV entry factors, including AXL, TYRO3, and TIM-1, were tested by Western blot, respectively. C, Vero cells were seeded in 8-well cover slip chambers (5 × 10^4 cells/well) and cultured in DMEM containing 2% FBS. Hc-CATH (1.25, 2.5, and 5 μM), AC5 (2.5 μM), LL-37 (2.5 μM), or same volume of PBS (peptide solvent) was added to cells. After culture at 37 °C for 24 h, the level of AXL was tested by immunofluorescence staining. The scale bar represents 50 μm. D, schematic diagram of E. E, Vero cells were seeded in 24-well plates (5 × 10^4 cells/well) and cultured in DMEM containing 2% FBS. Hc-CATH (1.25, 2.5, and 5 μM), AC5 (2.5 μM), LL-37 (2.5 μM), or same volume of PBS (peptide solvent) was added to cells and incubated at 37 °C for 2 h. […] Ratio of AXL to β-actin was analyzed by ImageJ.\nVero cells were incubated with Hc-CATH (1.25, 2.5, and 5 μM), AC5 (2.5 μM), LL-37 (2.5 μM), or PBS (solvent of peptide). […] The levels of ZIKV entry factors, including AXL, TYRO3, and TIM-1, were detected by WB analysis. […]"}, "ZIKV": {"tested_on": "ZIKV", "assay": "ZIKV replication stage, A549 cells (peptide added after infection)", "format": "cell-based, ZIKV strain PRVABC59", "details": "2.5 μM after ZIKV infection, 48 h; NS3 Western blot", "procedure": "B–I, Vero (B–G), A549 (H), or U251 (I) cells were incubated with ZIKV (MOI = 1) at 37 °C for 2 h, washed with PBS, and transferred with fresh DMEM containing 2% FBS and Hc-CATH (2.5 μM), AC5 (2.5 μM), LL-37 (2.5 μM), or PBS (solvent of peptide). After culture at 37 °C for 48 h, intracellular ZIKV RNA (B), NS3 protein (C, D, H, and I), E protein level (E, the scale bar represents 50 μm), and extracellular ZIKV titer (F and G) were detected by qPCR, Western blot, immunofluorescence staining, and plaque-forming assay, respectively.\nVero cells were incubated with ZIKV (MOI = 1) at 37 °C for 2 h, washed three times with PBS, and transferred with fresh DMEM containing 2% FBS and Hc-CATH (2.5 μM), AC5 (2.5 μM), LL-37 (2.5 μM), or PBS. After culture at 37 °C for 48 h, intracellular ZIKV RNA, NS3 protein, E protein, and extracellular ZIKV titer were detected by qPCR, WB, IF, and plaque-forming assay, respectively. The effect of Hc-CATH on ZIKV replication stage was further tested in A549 and U251 cells under the same condition, and intracellular ZIKV NS3 protein was detected by WB."}},
  "data": [
    {"sequence": "KFFKRLLKSVRRAVKKFRKKPRLIGLSTLL [Hc-CATH, cathelicidin antimicrobial peptide identified from the sea snake Hydrophis cyanocinctus]", "values": [
      {"measurement": "expression of COX-2", "setting": "COX-2", "value": "did not influence the expression of COX-2"},
      {"measurement": "level of TYRO3 in Vero cells", "setting": "TYRO3", "value": "did not obviously influence"},
      {"measurement": "ZIKV infection in A549 cells, peptide added after infection", "setting": "ZIKV", "value": "did not inhibit ZIKV infection"}
    ]}
  ]
}
